Data set [1] relates to KB (oral cancer) cell line. The data set can be described thus: In vitro anticancer activity, SRB assay, KB. The format is cell-based, human. The following applies: Homo sapiens, 48 h. The method, boiled down:
(§1)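 Read-out was sulforhodamine B protein staining after 48 h of continuous compound exposure. Growth is expressed as percent of untreated controls, from which the concentrations giving 50% growth inhibition (GI50) and 50% cell death (LC50) were derived.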
In general terms: The SRB assay estimates cell density from bound dye.

The subject of data set [2] is A 2780 (ovary cancer) cell line. The data set can be described thus: cells. The format is cell-based. The following applies: Homo sapiens, A2780, 48 h. The method, boiled down: (§2)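 Cell lines exposed continuously to compound for 48 h at no fewer than five concentrations in 10-fold dilutions. Growth estimated by sulforhodamine B protein staining relative to untreated controls; GI50 and LC50 (−50% growth) calculated from dose-response curves.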

Data set [3] relates to HOP 62 (lung cancer) cell line. The data set can be described thus: cells. In kind it is cell-based. The following applies: Homo sapiens, HOP-62, 48 h. The method, boiled down:
as §1

Data set [4] concerns Colo 205 (colon cancer) cell line. The data set can be described thus: cells. The format is cell-based. The following applies: Homo sapiens, COLO 205, 48 h. The method, boiled down:
as §2

In data set [5] the test system is MCF 7 (breast cancer) cell line. The data set can be described thus: cells. The following applies: Homo sapiens, MCF7, 48 h. In kind it is cell-based. The procedure, abridged:
as §2

For data set [6], the system named is SiHa (cervix cancer) cell line. The data set can be described thus: cells. In kind it is cell-based. The following applies: Homo sapiens, SiHa, 48 h. The method, boiled down: as §2
Data set [7] has as its system PC 3 (prostate cancer) cell line. The data set can be described thus: cells. The format is cell-based. The following applies: Homo sapiens, 48 h. The method, boiled down: as §2
The subject of data set [8] is A 549 (lung cancer) cell line. The data set can be described thus: cells. In kind it is cell-based. The following applies: Homo sapiens, A549, 48 h. The procedure, abridged:
as §2

In data set [9] the test system is duplex-form calf thymus DNA (CT-DNA). The data set can be described thus: Thermal denaturation studies with calf thymus DNA (DNA binding affinity). The following applies: [PBD]:[DNA] 1:5, CT-DNA 100 μM, ligand 20 μM, pH 7.00. The method, boiled down: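 CT-DNA (100 μm in phosphate) with PBD (20 μm; 1:5 PBD/DNA molar ratio) in 10 mM sodium phosphate, 1 mM Na2EDTA, pH 7.00, incubated at 37° C for 0 and 18 h. A260 monitored while heating at 1° C min^−1 over 40-110° C; Tm from d(A260)/dT maxima, ΔTm versus drug-free DNA.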

In data set [10] the test system is PC-3 (prostate cancer) xenografts. The data set can be described thus: In vivo efficacy study on xenograft PC3. The following applies: PC-3 xenograft, scid male mice; compared with positive control adriamycin. An excerpt: (§3) References may be made to patent “WO/2008/099416” wherein Benzothiazole or benzoxazole linked Pyrrolo[2,1-c][1,4] benzodiazepine hybrid as anticancer agent has been reported. References may be made to patent “U.S. Pat. No. 6,979,684” wherein Pyrrolo[2,1-c][1,4] benzodiazepine and naphthalimide are linked through piperazine moiety. The linking of pharmacophore like napthalimide and piperazine to pyrroloberizodiazepine can not be considered similar to a pharmacophore like benzothiazole as each pharmacophore is known for certain biological property. In the present investigation the benzothiaole and piperazine subunits are considered to be a different heterocyclic moieties compared to the earlier reported pharmacophores like napthalimide. Therefore, this structural variation of benzothiazole with piperazine moiety has been utilized for DNA binding aspect. Keeping this in mind, these new conjugates have been designed and synthesized to further improve the anticancer activity including the DNA binding affinity. The anticancer activity may not depend on the DNA binding activity. […] Moreover, one of the potent conjugate 9f (IICT-302) of this series has been evaluated for its in vivo efficacy studies (in scid male mice) against MCF-7 (breast cancer) and PC-3 (prostate cancer) xenografts by using adriamycin as a positive control.
FIG. 3 represents in vivo efficacy study of compound 9f on xenograft PC3.
(§4) The structural variation of benzothiazole/benzoxazole with piperazine moiety has been utilized for DNA binding aspect. Moreover, one of the potent conjugate 9f (IICT-302) of this series has been evaluate for its in vivo efficacy studies against MCF-7 (breast cancer) and PC-3 (prostate cancer) by using Adriamycin as positive control.

Data set [11] has as its system MCF-7 (breast cancer) xenografts. The data set can be described thus: In vivo efficacy study on xenograft MCF-7. The following applies: MCF-7 xenograft, scid male mice; compared with positive control adriamycin.
Excerpt: as §3
FIG. 2 represents in vivo efficacy study of compound 9f on xenograft MCF-7.
as §4

Data set [12] deals with eight tumour cells lines derived from seven cancer types. The data set can be described thus: In vitro anticancer activity, SRB assay, panel of eight cell lines. The format is cell-based. The following applies: Homo sapiens, range over the eight cell lines per compound; read-out: GI50 range against cancer cell lines. How it is done: Anticancer activity: In vitro biological activity studies were carried out at the Advance Center for Treatment Research & Education in Cancer (ACTREC), Navi Mumbai.
The compounds were evaluated for in vitro anticancer activity against eight tumour cells lines derived from seven cancer types (non-small-cell lung, colon, oral, cervix, ovarian, prostate, and breast cancer) as shown in Table 2. For each compound, dose response curves for each cell line were measured at a minimum of five concentrations at 10 fold dilutions. A protocol of 48 h continuous drug exposure was used and a sulforhodamine B (SRB) protein assay was used to estimate cell viability or growth. The concentration causing 50% cell growth inhibition (GI50) and 50% cell death (LC50, −50% growth) compared with the control was calculated. Compounds 9a-9l have been evaluated for their in vitro cytotoxicity in eight cell lines from seven human cancer types of lung (Hop-62, A-549) colon (COLO-205) cervix (Si—Ha), ovary (A-2780), prostate (PC3) breast (MCF7), oral (KB). The results are expressed as percent of cell growth determined relative to that of untreated control cells (Table-8 and table-9).

Data set [13] deals with MCF 7 (breast cancer) cell line. The following applies: comparative data, hybrids without piperazine; read-out: GI50 MCF 7 (hybrides with out piperazine); cited from earlier work.
Data set [14] deals with A 549 (lung cancer) cell line. The following applies: comparative data, hybrids without piperazine; read-out: GI50 A 549 (hybrides with out piperazine); cited from earlier work.
For a further data set, the system named is SNB-19 cell line. The following applies: comparative data, hybrids without piperazine; read-out: GI50 SNB-19 (hybrides with out piperazine); cited from earlier work.
In data set [15] the test system is IGROV1 (ovary cancer) cell line. The following applies: comparative data, hybrids without piperazine; read-out: GI50 IGROV1 (hybrides with out piperazine); cited from earlier work.
Data set [16] relates to PC 3 (prostate cancer) cell line. The following applies: comparative data, hybrids without piperazine; read-out: GI50 PC 3 (hybrides with out piperazine); cited from earlier work.
The next data set deals with A498 cell line. The following applies: comparative data, hybrids without piperazine; read-out: GI50 A498 (hybrides with out piperazine); cited from earlier work.
The test system of data set [17] is HOP 62 (lung cancer) cell line. The following applies: comparative data, hybrids without piperazine; read-out: GI50 HOP 62 (hybrides with out piperazine); cited from earlier work.
Data set [18] deals with duplex-form calf thymus DNA (CT-DNA). The following applies: comparative data, hybrids without piperazine, cited from earlier work.
The subject of data set [19] is Colo 205 (colon cancer) cell line. The following applies: comparative data, hybrids without piperazine; read-out: GI50 Colo 205 (hybrides with out piperazine); cited from earlier work.

SMILES strings stand for the structures. Read-outs that look alike come from different tables or passages of the source. Some results are limits rather than exact numbers.

`COc1cc(-c2nc3ccccc3s2)ccc1OCCCCN1CCN(CCCCOc2cc3c(cc2OC)C(=O)N2CCC[C@H]2C=N3)CC1` [Compound 9f, 7-Methoxy-8-[4-(4-{4-[4(1,3-benzothiazol-2-yl)-2-methoxyphenoxy]butyl}piperazin-1-yl)butyl]oxy-(11aS)-1,2,3,11a-tetrahydro-5H-pyrrolo[2,1-c][1,4]benzodiazepin-5-one]: the concentration for 50% growth inhibition (GI50) (as a rule, the concentration giving 50% growth inhibition) in data set [1] (read-out: GI50 KB, 48 h drug exposure, SRB, mean of three determinations) was under 10 nM; in data set [2] (read-out: GI50 A 2780, 48 h drug exposure, SRB, mean of three determinations), under 10 nM; in data set [3] (read-out: GI50 HOP 62, 48 h drug exposure, SRB, mean of three determinations), under 10 nM; in data set [4] (read-out: GI50 Colo 205, 48 h drug exposure, SRB, mean of three determinations), under 10 nM; in data set [5] (read-out: GI50 MCF 7) it was under 10 nM; in [6] (read-out: GI50 SiHa, 48 h drug exposure, SRB, mean of three determinations), under 10 nM. In addition, the concentration for 50% growth inhibition (GI50) was under 10 nM in [7] (read-out: GI50 PC 3); under 10 nM in [8] (read-out: GI50 A 549, 48 h drug exposure, SRB, mean of three determinations); under 10 nM in [12]. The CC50 in data set [1] (read-out: LC50 KB, 50% cell death, 48 h drug exposure, SRB) is 180 nM; in [2] (read-out: LC50 A 2780, 50% cell death, 48 h drug exposure, SRB), 89 nM; in data set [4] (read-out: LC50 Colo 205), over 100000 nM; in data set [7] (read-out: LC50 Pc 3, 50% cell death, 48 h drug exposure, SRB), 2400 nM; in data set [8] (read-out: LC50 A 549, 50% cell death, 48 h drug exposure, SRB), over 100000 nM. The LC50 (as a rule, the concentration lethal to half of the exposed cells or organisms) in [3] (read-out: LC50 HOP 62, 50% cell death, 48 h drug exposure, SRB) is 2400 nM. Also, the LC50 (concentration causing 50% cell death) in [5] (read-out: LC50 MCF 7, 50% cell death, 48 h drug exposure, SRB) is under 10 nM; in data set [6] (read-out: LC50 SiHa, 50% cell death, 48 h drug exposure, SRB) it was 2500 nM. Further, the “ΔTm after incubation at 37° C. for 0 h” value in data set [9] (0 h) is 15.5 °C. The “ΔTm after incubation at 37° C. for 18 h” value in data set [9] (18 h) came out at 15.9 °C. Further, the “RTV in in vivo efficacy study” value in [10] and in data set [11] was “good RTV” throughout. Further, the “survival data in in vivo efficacy study” value in data set [10] and in data set [11] was “good survival data” in each case. The “toxicity in in vivo efficacy study” value in data set [10] and in data set [11] was “less toxicity” throughout.

Consider `COc1cc2c(cc1OCCCCCOc1ccc(-c3nc4ccccc4s3)cc1)N=C[C@@H]1CCCN1C2=O` [Compound 20c], for which the concentration for 50% growth inhibition (GI50) in data set [13] is 330 nM; in data set [14], 2590 nM; in the data set with SNB-19 cell line it was 2940 nM; in data set [15] it was 2690 nM; in data set [16], 230 nM; with A498 cell line, 2260 nM. For the same molecule, the 50% growth inhibitory concentration (GI50) was 412 nM in [17] and 380 nM in data set [19]. In data set [18], the “ΔTm after incubation at 37° C. for 0 h (PBD hybrids with out piperizine)” value is 4.1 °C. In [18], the “ΔTm after incubation at 37° C. for 18 h (PBD hybrids with out piperizine)” value is 4.3 °C.

In the case of `COc1cc(-c2nc3ccccc3s2)ccc1OCCCCCOc1cc2c(cc1OC)C(=O)N1CCC[C@H]1C=N2` [Compound 20d], the 50% growth inhibitory concentration (GI50) in data set [13] was 10 nM; in data set [14], 240 nM; in the data set with SNB-19 cell line, 210 nM; in data set [15] it was 344 nM; in data set [16] it was 40 nM; with A498 cell line, 170 nM. The GI50 in data set [17] was 40 nM; in [19], 60 nM. In [18], the “ΔTm after incubation at 37° C. for 0 h (PBD hybrids with out piperizine)” value is 6.2 °C. Also, in data set [18], the “ΔTm after incubation at 37° C. for 18 h (PBD hybrids with out piperizine)” value is 6.3 °C.

These data come from patent US8637665B2, “Pyrrolo[2,L-C][L,4]benzodiazepine-benzothiazole or benzoxazole conjugates linked through piperazine moiety and process for the preparation thereof” (priority 2010, dated 2014).
